In patent publication US20070009617A1, “Method for preventing fungal growth in plants” (priority 2003, published 2007):

How the values were obtained:
Assay in all cases: mycelial growth from inoculum plugs in amended basal nutrient solution
Rhizoctonia solani = type: cell-based; details: fungicide control
Experimental: (§1) The efficacy of the garlic extract was tested against nine (9) soil-borne fungi that cause root and lower stem rots of plants. The fungal pathogens included: Pythium aphanidermatum, Pythium irregular, Pythium ultimum, Phytophthora capsici, Phytophthora cinnamomi, Phytophthora nicotiana, Rhizoctonia solani, Fusarium oxysporum fsp. lycopersici, Fusarium oxysporum f.sp. spinaciae, and Thielaviopsis basicola. All isolates used in this investigation were known to be pathogenic to various cultivated plant species.
(§2) All isolates of Pythium aphanidermatum, Pythium irregular, Pythum ultimum, Phytophthora capsici, Phytophthora cinnamomi, Phytophthora nicotiana, Rhizoctonia solani, Fusarium oxysporum f.sp. lycopersici, Fusarium oxysporum f.sp. spinaciae were grown on standard corn meal agar (CMA) for 8 to 9 days. Plugs from inoculum plates were taken using a #4 cork borer (5 mm diameter). Inoculum plugs were placed into 5-cm sterile plastic petri dishes containing 10 ml of a basal nutrient solution that consisted of 60% (v/v) clarified V-8 juice and sterile distilled water (SDW). Basal nutrient solutions were amended with the appropriate treatments. […] Cultures were placed into a growth chamber and maintained in the dark at 22(C(1(C. After 48 hours, mycelial growth (if any was visible) from culture plugs was measured.

[1] = test system: Pythium aphanidermatum, Pythium irregular, Pythium ultimum; type: cell-based, Pythium species; details: basal nutrient solution amended with fungicide control; 48 hours
Experimental: as §1, §2

[2] = test system: Phytophthora capsici, Phytophthora cinnamomi, Phytophthora nicotiana; type: cell-based, Phytophthora species; details: basal nutrient solution amended with fungicide control; 48 hours
Experimental: as §1, §2

SMILES | growth on amended basal nutrient solution (Rhizoctonia solani; first replication (inappropriate concentration)) | growth on amended basal nutrient solution (Rhizoctonia solani; second replication) | growth from the inoculum plugs [1] | growth from the inoculum plugs [2]
O=[N+]([O-])c1c(Cl)c(Cl)c(Cl)c(Cl)c1Cl [PCNB] | limited amount of growth | did not grow | – | –
COCC(=O)N(c1c(C)cccc1C)C(C)C(=O)OC (stereo not shown) [metalaxyl] | – | – | none | none
